Among the data in US12600728B2, “Interleukin-17 inhibitors” (priority 2020, dated 2026) are IC50 values, retold here.

Read-outs that look alike come from different tables or passages of the source.

Test [1] has as its target biotinylated human IL-17A / AF647-labeled human IL-17RA (Homo sapiens, UniProt Q16552). As to the kind of experiment: Human IL-17A×IL-17RA TR-FRET assay. The following applies: biotinylated human IL-17A 5 nM, AF647-labeled human IL-17RA 30 nM. Type of test: binding. The procedure, abridged: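 Compounds tested in duplicate at each concentration; neutral controls contain all components with DMSO in place of compound.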

Test [2] has as its target recombinant human IL-17AA (Homo sapiens, UniProt Q16552). Kind of test: IL-6 release from NHDF cells, IL-17AA plus TNF-α stimulation. The test is classed as cell-based. The following applies: IL-17AA 30 pM plus TNF-α 6 pM, 24 hours, IL-6 by ELISA. The procedure, abridged:
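ELISA measured IL-6 in supernatants after 24 h at 37° C of NHDF cells with a compound/cytokine cocktail, pre-mixed 30 min at room temperature. Duplicates; 0.1% DMSO or 20% plasma final. IC50 from IL-6 remaining after subtracting the TNF-α-alone signal.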
Background: An ELISA detects its analyte on a solid surface through an enzyme-linked reagent.

Where [3] appears, read: TR-FRET, read-out: IL17AA FRET/ IL17Rawt IC50.
The mark [4] stands for this setting: NHDF cells, read-out: IL17AA + TNF IC50 IL-6.

Sequence of recombinant human IL-17AA (Q16552 24-155): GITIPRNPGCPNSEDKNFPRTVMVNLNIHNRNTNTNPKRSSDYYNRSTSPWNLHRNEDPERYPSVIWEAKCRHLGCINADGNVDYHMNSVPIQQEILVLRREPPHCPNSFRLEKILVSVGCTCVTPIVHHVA
Sequence of biotinylated human IL-17A / AF647-labeled human IL-17RA (Q16552 24-155): as above

`Cc1c(-c2ccc(NC(=O)C(NC(=O)c3ccnn3C)C3CCC(C)CC3)cc2)c(Cl)cc[n+]1[O-]` [Example 46, 4-chloro-2-methyl-3-(4-((S)-2-(1-methyl-1H-pyrazole-5-carboxamido)-2-((1r,4S)-4-methylcyclohexyl)acetamido)phenyl)pyridine 1-oxide]: the IC50 in test [1] (setting [3]) is 18 nM; in test [2] (setting [4]), 4 nM.
With `Cc1c(-c2ccc(NC(=O)[C@@H](NC(=O)c3ccnn3C)C3CCCCCC3)cc2)c(Cl)cc[n+]1[O-]` [Example 47, (S)-4-chloro-3-(4-(2-cycloheptyl-2-(1-methyl-1H-pyrazole-5-carboxamido)acetamido)phenyl)-2-methylpyridine 1-oxide], the IC50 is 17 nM in test [1] (setting [3]) and 7 nM in test [2] (setting [4]).
Take `Cc1c(-c2ccc(NC(=O)[C@@H](NC(=O)c3ccnn3C(C)C)C3CCCCCC3)cc2)c(Cl)cc[n+]1[O-]` [Example 48, (S)-4-chloro-3-(4-(2-cycloheptyl-2-(1-isopropyl-1H-pyrazole-5-carboxamido)acetamido)phenyl)-2-methylpyridine 1-oxide]: the values for the IC50 in test [1] (setting [3]) and in test [2] (setting [4]) were 12 nM and 1 nM, respectively.
Regarding `Cc1nocc1C(=O)N[C@H](C(=O)Nc1ccc(-c2c(Cl)cc[n+]([O-])c2C)cc1)C1CCC(F)(F)CC1` [Example 49, (S)-4-chloro-3-(4-(2-(4,4-difluorocyclohexyl)-2-(3-methylisoxazole-4-carboxamido)acetamido)phenyl)-2-methylpyridine 1-oxide], the IC50 in test [1] (setting [3]) amounted to 58 nM; in test [2] (setting [4]), 31 nM.
`Cc1cc[n+]([O-])c(C)c1-c1ccc(NC(=O)[C@@H](NC(=O)c2ccnn2C(C)C)[C@H]2CCCc3ccccc32)cc1` [Example 50, 3-(4-((S)-2-(1-isopropyl-1H-pyrazole-5-carboxamido)-2-((S)-1,2,3,4-tetrahydronaphthalen-1-yl)acetamido)phenyl)-2,4-dimethylpyridine 1-oxide]: the IC50 in test [1] (setting [3]) came to 23 nM; in test [2] (setting [4]) it was 1 nM.
`CCc1nocc1C(=O)NC(C(=O)Nc1ccc(-c2c(Cl)cc[n+]([O-])c2C)cc1)C1CCC(F)(F)CC1` (stereo not shown) [Example 51, 4-chloro-3-(4-(2-(4,4-difluorocyclohexyl)-2-(3-ethylisoxazole-4-carboxamido)acetamido)phenyl)-2-methylpyridine 1-oxide]: the IC50 was 66 nM in test [1] (setting [3]) and 62 nM in test [2] (setting [4]).
In the same order, the values of `Cc1c(-c2ccc(NC(=O)[C@@H](NC(=O)c3ccnn3C)C3CCC(F)(F)CC3)cc2)c(Cl)cc[n+]1[O-]` [Example 52, (S)-4-chloro-3-(4-(2-(4,4-difluorocyclohexyl)-2-(1-methyl-1H-pyrazole-5-carboxamido)acetamido)phenyl)-2-methylpyridine 1-oxide] are 43 nM and 80 nM.
With `Cc1cc[n+]([O-])c(C)c1-c1ccc(NC(=O)[C@@H](NC(=O)c2ccoc2C)C2CCCCC2)cc1` [Example 53, (S)-3-(4-(2-cyclohexyl-2-(2-methylfuran-3-carboxamido)acetamido)phenyl)-2,4-dimethylpyridine 1-oxide], the IC50 stood at 16 nM in test [1] (setting [3]) and 86 nM in test [2] (setting [4]).
In the same order, the values of `Cc1c(-c2ccc(NC(=O)[C@@H](NC(=O)c3ccnn3C)C3CC=C(F)CC3)cc2)c(Cl)cc[n+]1[O-]` (stereo partly drawn) [Example 55, 4-chloro-3-(4-((2S)-2-(4-fluorocyclohex-3-en-1-yl)-2-(1-methyl-1H-pyrazole-5-carboxamido)acetamido)phenyl)-2-methylpyridine 1-oxide] are 38 nM and 27 nM.
On to `Cc1c(-c2ccc(NC(=O)C(NC(=O)c3ccnn3C)C3CCC(C)CC3)cc2F)c(Cl)cc[n+]1[O-]` [Example 56, 4-chloro-3-(2-fluoro-4-((S)-2-(1-methyl-1H-pyrazole-5-carboxamido)-2-((1r,4S)-4-methylcyclohexyl)acetamido)phenyl)-2-methylpyridine 1-oxide], for which the IC50 in test [1] (IL17AA FRET/ IL17Rawt IC50, TR-FRET) is 21 nM; in test [2] (IL17AA + TNF IC50 IL-6, NHDF cells), 4 nM.
As to `Cc1nocc1C(=O)NC(C(=O)Nc1ccc(-c2c(Cl)cc[n+]([O-])c2C)c(F)c1)[C@H]1C[C@@H]2C[C@@H]2C1` (stereo partly drawn) [Example 57, 3-(4-(2-((1R,3s,5S)-bicyclo[3.1.0]hexan-3-yl)-2-(3-methylisoxazole-4-carboxamido)acetamido)-2-fluorophenyl)-4-chloro-2-methylpyridine 1-oxide], the IC50 turned out to be 37 nM in test [1] (setting [3]) and 12 nM in test [2] (setting [4]).
Taken in the same sequence, the figures for `CCn1nccc1C(=O)NC(C(=O)Nc1ccc(-c2c(Cl)cc[n+]([O-])c2C)c(F)c1)[C@H]1C[C@@H]2C[C@@H]2C1` (stereo partly drawn) [Example 58, 3-(4-(2-((1R,3s,5S)-bicyclo[3.1.0]hexan-3-yl)-2-(1-ethyl-1H-pyrazole-5-carboxamido)acetamido)-2-fluorophenyl)-4-chloro-2-methylpyridine 1-oxide] were 44 nM and 12 nM.
Taken in the same sequence, the figures for `Cc1c(-c2ccc(NC(=O)[C@@H](NC(=O)c3ccnn3C)C3CCCCC3)c(F)c2)c(Cl)cc[n+]1[O-]` [Example 59, (S)-4-chloro-3-(4-(2-cyclohexyl-2-(1-methyl-1H-pyrazole-5-carboxamido)acetamido)-3-fluorophenyl)-2-methylpyridine 1-oxide] were 49 nM and 56 nM.
In the same order, the values of `Cc1c(-c2ccc(NC(=O)[C@@H](NC(=O)c3ccnn3C)C3CCCCC3)nc2)c(Cl)cc[n+]1[O-]` [Example 60, (S)-4-chloro-6′-(2-cyclohexyl-2-(1-methyl-1H-pyrazole-5-carboxamido)acetamido)-2-methyl-[3,3′-bipyridine] 1-oxide] are 123 nM and 236 nM.
Turning to `Cc1c(-c2c(F)cc(NC(=O)[C@@H](NC(=O)c3ccnn3C)C3CCCCC3)cc2F)c(Cl)cc[n+]1[O-]` [Example 61, (S)-4-chloro-3-(4-(2-cyclohexyl-2-(1-methyl-1H-pyrazole-5-carboxamido)acetamido)-2,6-difluorophenyl)-2-methylpyridine 1-oxide], the IC50 was 18 nM in test [1] (setting [3]) and 16 nM in test [2] (setting [4]).
Regarding `Cc1c(-c2ccc(NC(=O)[C@@H](NC(=O)c3ccnn3C)C3CCCCC3)c(F)c2F)c(Cl)cc[n+]1[O-]` [Example 62, 4-chloro-3-(4-((S)-2-cyclohexyl-2-(1-methyl-1H-pyrazole-5-carboxamido)acetamido)-2,3-difluorophenyl)-2-methylpyridine 1-oxide], the IC50 in test [1] (setting [3]) turned out to be 15 nM; in test [2] (setting [4]), 7 nM.
In the case of `Cc1c(-c2cc(F)c(NC(=O)[C@@H](NC(=O)c3ccnn3C)C3CCCCC3)cc2F)c(Cl)cc[n+]1[O-]` [Example 63, 4-chloro-3-(4-((S)-2-cyclohexyl-2-(1-methyl-1H-pyrazole-5-carboxamido)acetamido)-2,5-difluorophenyl)-2-methylpyridine 1-oxide], the results for the IC50 in test [1] (setting [3]) and in test [2] (setting [4]) were 247 nM and 57 nM, respectively.
As to `Cc1c(-c2ccc(NC(=O)[C@@H](NC(=O)c3ccnn3C)C3CC=C(F)CC3)cc2)c(C(F)(F)F)cc[n+]1[O-]` (stereo partly drawn) [Example 65, 3-(4-((2S)-2-(4-fluorocyclohex-3-en-1-yl)-2-(1-methyl-1H-pyrazole-5-carboxamido)acetamido)phenyl)-2-methyl-4-(trifluoromethyl)pyridine 1-oxide], the IC50 stood at 57 nM in test [1] (setting [3]) and 24 nM in test [2] (setting [4]).
Take `Cc1c(-c2ccc(NC(=O)[C@@H](NC(=O)c3ccnn3C)C3CCCCC3)cc2F)c(C(F)(F)F)cc[n+]1[O-]` [Example 66, 3-(4-((S)-2-cyclohexyl-2-(1-methyl-1H-pyrazole-5-carboxamido)acetamido)-2-fluorophenyl)-2-methyl-4-(trifluoromethyl)pyridine 1-oxide]: the IC50 in test [1] (setting [3]) is 18 nM; in test [2] (setting [4]), 4 nM.
Consider `Cc1c(-c2ccc(NC(=O)[C@@H](NC(=O)c3ccnn3C)C3CCCCC3)cc2)c(C(F)(F)F)cc[n+]1[O-]` [Example 67, (S)-3-(4-(2-cyclohexyl-2-(1-methyl-1H-pyrazole-5-carboxamido)acetamido)phenyl)-2-methyl-4-(trifluoromethyl)pyridine 1-oxide], for which the IC50 in test [1] (setting [3]) stood at 124 nM; in test [2] (setting [4]) it was 15 nM.
In the same order, the values of `Cc1cc[n+]([O-])c(C)c1-c1ccc(NC(=O)[C@@H](NC(=O)c2ccnn2C(C)C)C(c2ccccc2)c2ccccc2)cc1` [Example 68, (S)-3-(4-(2-(1-isopropyl-1H-pyrazole-5-carboxamido)-3,3-diphenylpropanamido)phenyl)-2,4-dimethylpyridine 1-oxide] are 76 nM and 16 nM.
On to `Cc1c(-c2ccc(NC(=O)[C@@H](NC(=O)c3ccnn3C)C(c3ccccc3)c3ccccc3)cc2)c(Cl)cc[n+]1[O-]` [Example 69, (S)-4-chloro-2-methyl-3-(4-(2-(1-methyl-1H-pyrazole-5-carboxamido)-3,3-diphenylpropanamido)phenyl)pyridine 1-oxide], for which the IC50 was found to be 90 nM in test [1] (setting [3]) and 20 nM in test [2] (setting [4]).
In the same order, the values of `CCn1nccc1C(=O)NC(C(=O)Nc1ccc(-c2c(Cl)cc[n+]([O-])c2C)cc1)C1CC2CC2C1` (stereo not shown) [Example 70, 3-(4-(2-(bicyclo[3.1.0]hexan-3-yl)-2-(1-ethyl-1H-pyrazole-5-carboxamido)acetamido)phenyl)-4-chloro-2-methylpyridine 1-oxide] are 84 nM and 26 nM.
